Measured values reported in patent US20150005242A1, “AROMATIC-CATIONIC PEPTIDES AND USES OF SAME” (Institut de Recherches Cliniques de Montreal, priority 2010, published 2015).

Assays:
[1] = test system: renal ischemia-reperfusion (IR) injury; test: restoration of mitochondrial respiration and ATP synthesis following renal ischemia-reperfusion (IR) injury; assay type: in vivo; conditions: rats, 2.0 mg/kg sc 30 min before ischemia and at reperfusion; for state 3 respiration (oxygen consumption) in isolated renal mitochondria: 45 min bilateral renal artery occlusion, 20 min reperfusion, p<0.01; for ATP content (ATP synthesis) in rat kidney: 45 min ischemia, 1 h after IR injury, P<0.05
Description: FIG. 2 is a chart showing treatment with D-Arg-Dmt-Lys-Phe-NH2 increased state 3 respiration in isolated renal mitochondria after 20 min IR injury (p<0.01).
FIG. 3 is a chart showing that treatment with D-Arg-Dmt-Lys-Phe-NH2 increased ATP content in rat kidney at 1 h after IR injury (P<0.05).
Preliminary studies further support our hypothesis that D-Arg-2′6′-Dmt-Lys-Phe-NH2 can facilitate ET and improve ATP synthesis in vivo. We have examined the effect of this peptide on restoration of mitochondrial respiration and ATP synthesis following ischemia-reperfusion (IR) injury in rats. Rats were subjected to bilateral occlusion of renal artery for 45 min followed by 20 min or 1 h reperfusion. Rats received saline or peptide (2.0 mg/kg sc) 30 min before ischemia and again at the time of reperfusion (n=4-5 in each group).

[2] = biological target: cytochrome c (cyt c) (Homo sapiens, UniProt P99999); test: kinetics of cyt c reduction monitored by absorbance spectroscopy (A550); assay type: biochemical; conditions: for cyt c reduction by peptide alone: peptide alone at 100 μM, no reducing agent
Description: FIG. 1 is a chart showing that the peptide D-Arg-Dmt-Lys-Phe-NH2 increases the rate of cytochrome c (cyt c) reduction. Reduced cyt c was measured by absorbance at 550 nm. […] The peptide alone at 100 μM had no effect.
We hypothesize that the distribution of aromatic cationic peptides among the protein complexes in the IMM allows it to serve as additional relay stations to facilitate ET. In support of this hypothesis, we have used the kinetics of cyt c reduction (monitored by absorbance spectroscopy) as a simple model system to determine if the peptide D-Arg-2′6′-Dmt-Lys-Phe-NH2 can facilitate ET.

[3] = test system: mitochondrial ROS; test: mitochondrial ROS and mitochondrial function in cellular and animal studies; assay type: cell-based
From the text: These examples identify “druggable” chemical compounds that can reduce mitochondrial oxidative stress and protect mitochondrial function. As mitochondria are the major source of intracellular reactive oxygen species (ROS), the antioxidant must be delivered to mitochondria in order limit oxidative damage to mitochondrial DNA, proteins of the electron transport chain (ETC), and the mitochondrial lipid membranes. We discovered a family of synthetic aromatic-cationic tetrapeptides that selectively target and concentrate in the inner mitochondrial membrane (IMM). Some of these peptides contain redox-active amino acids that can undergo one-electron oxidation and behave as mitochondria-targeted antioxidants. […] Although radical scavenging is the most commonly used approach to reduce oxidative stress, there are other potential mechanisms that can be used, including facilitation of electron transfer to reduce electron leak and improved mitochondrial reduction potential.

[4] = test system: animal models of ischemia-reperfusion injury, neurodegenerative diseases, and metabolic syndrome; test: animal models of ischemia-reperfusion injury, neurodegenerative diseases, and metabolic syndrome; assay type: in vivo
[5] = neutralization of reactive species and inhibition of lipid peroxidation; assay type: biochemical
[6] = listed as D-Arg-2′6′-Dmt-Lys-Phe-NH2, 2 mg/kg

cytochrome c (cyt c), sequence (P99999 whole entry, species assumed): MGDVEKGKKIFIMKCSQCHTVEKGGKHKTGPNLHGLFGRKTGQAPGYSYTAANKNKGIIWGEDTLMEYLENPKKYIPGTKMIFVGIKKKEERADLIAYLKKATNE

D-Arg-2′6′-Dmt-Lys-Phe-NH2 [D-Arg-Dmt-Lys-Phe-NH2]
state 3 respiration (oxygen consumption) in isolated renal mitochondria ([1]; 2 mg/kg): increased
state 3 respiration (oxygen consumption) in isolated renal mitochondria [1, 6]: improved
ATP content (ATP synthesis) in rat kidney ([1]; 2 mg/kg): increased
ATP content (ATP synthesis) in rat kidney [1, 6]: improved
rate of NAC-induced cyt c reduction ([2]; 40 μM NAC as reducing agent, absorbance at 550 nm): dose-dependently increased
cyt c reduction by peptide alone [2]: had no effect
cyt c reduction by peptide alone ([2]; listed as D-Arg-2′6′-Dmt-Lys-Phe-NH2): did not reduce cyt c

D-Arg-2′6′-Dmt-Tyr-Lys-Phe-NH2
mitochondrial ROS ([3]; cellular and animal studies): reduces
mitochondrial function ([3]; cellular and animal studies): protect
protection against mitochondrial oxidative stress ([3]; compared with mitochondrial catalase overexpression): comparable to that observed with mitochondrial catalase overexpression
efficacy in animal models [4]: remarkable efficacy
oral bioavailability: limited by degradation in intestinal fluids
lipid peroxidation [5]: inhibit
neutralization of H2O2 [5]: can neutralize
neutralization of hydroxyl radical [5]: can neutralize
neutralization of peroxynitrite [5]: can neutralize
